From US10507216B2, “Method for olfactory improvement with saccharide” (priority 2017, dated 2019) come the findings set out here.

Experiment [1] has as its system rat olfactory neuroepithelial cells (ONCs). The experiment can be described thus: Western blot analysis of rat ONCs (βIII tubulin, OMP, Golf, ADCY3 relative to GAPDH). It is filed as cell-based. The note with it: day 9. The protocol: Olfactory neuroepithelia of rats were isolated from E17 embryos of wistar rats and 40 embryos per trial were used. After isolation, olfactory neuroepithelia were digested in Hanks' balanced salt solution (Roche Molecular Biochemicals, Indianapolis, Ind., USA) containing 0.125% Trypsin/EDTA for 30 minutes at 37° C. The cell suspension was then filtered through a 70 μm cell strainer to eliminate cell aggregates and debris, and adjusted to 24×10^4 cells/mL (equivalent to 5×10^4 cells/cm^2). Finally, a 2 mL cell suspension was added to six-wells coated with 0.85 μg/cm^2 poly-L-lysine (PLL). ONCs were cultured at 37° C. in a humidified 5% CO2 and 95% air atmosphere. Cell morphology was observed under an inverse phase contrast microscope (TS-100, Nikon, Tokyo, Japan) and scanning electron microscope (Hitachi S-4800).
ONC medium comprised DMEM/F12 (Invitrogen), 20 ng/mL bFGF, 20 ng/mL EGF, 2% B27 and 1% penicillin/streptomycin. To prepare the chitosan-containing medium for administration groups, chitosan (C-3646, Sigma, St. Louis, Mo.) was mixed with culture medium (0.1 mg/mL), and adjusted to pH 7.2 with NaOH. Particularly, chitosan solution was prepared by dissolving chitosan in 0.5 M acetic acid.
ONC lysates were obtained from individual culture wells using a RIPA lysis buffer containing protease inhibitor cocktail tablets (Roche Diagnostics GmbH). These samples were then denatured and separated by 12% SDS-PAGE gels, and blotted onto PVDF membranes (Millipore). After blocking in a CIS blocking buffer at room temperature for 60 seconds, the membranes were probed with various primary antibodies at 4° C. overnight. Membranes were incubated with horseradish peroxidase-conjugated secondary antibodies for 1.5 hours, and finally visualized using enhanced chemiluminescence (ECL; Millipore, Billerica, Mass.). After detachment of previous primary antibodies, the membranes were also probed with GAPDH antibodies, which served as an internal control. Images of western blotting were acquired by UVP BioSpectrum 810, and analyzed by Vision Works LS software (UVP, California, USA).
All the measurements were presented as mean±SD. Statistical significance was computed with one-way ANOVA followed by LSD test with p<0.05. All statistical analyses were conducted using Sigma plot v12.5.

Experiment [2] relates to human olfactory neuroepithelial cells (ONCs). The experiment can be described thus: Western blot analysis of human ONCs (OMP, Golf, βIII tubulin). The format is cell-based. Conditions: 0.1 mg/ml monosaccharide monomer, day 9. The protocol: Human olfactory neuroepithelia were harvested from adult olfactory neuroepithelium during endoscopic sinus surgery. Biopsy specimens were transferred into Hank's balanced salt solution (HBSS), minced finely, and then digested with 0.125% Trypsin/EDTA for 30 minutes at 37° C. After digestion, the pellet was collected by centrifuge and resuspended in the iscove's modified dulbecco's media (IMDM; Invitrogen, Calif., USA) with 10% fetal bovine serum and 1% penicillin/streptomycin Finally, they were seeded to six-wells coated with laminin-co-fibronectin for 21 days, incubated in a humidified atmosphere containing 5% CO2 and 95% air. After 21 days, the medium were changed with induction medium. This induction medium is Dulbecco's Modified Eagle Medium: Nutrient Mixture F-12 (DMEM/F12) (Invitrogen, Calif., USA) supplemented with 2% B-27 serum-free supplement. To prepare the chitosan-containing medium for administration groups, chitosan (C-3646, Sigma-Aldrich, St. Louis, Mo.) was mixed with induction medium (0.1 mg/ml), and adjusted to pH 7.2 with NaOH.
ONC lysates were obtained from individual culture wells using a RIPA lysis buffer containing protease inhibitor cocktail tablets (Roche Diagnostics GmbH). […] Images of western blotting were acquired by UVP BioSpectrum 810, and analyzed by Vision Works LS software (UVP, California, USA). […]
For orientation: A western blot detects proteins with antibodies after separation by electrophoresis.

[3] abbreviates: 0.1 mg/ml monosaccharide monomer.

As for heparan sulfate proteoglycan [HSPG], the “expression levels of OMP and Golf” value in experiment [1] (0.1 mg/ml proteoglycan or glycosaminoglycan) was “promoted expression of mature and functional ORNs”. For the compound `N[C@H]1C(O)O[C@H](CO)[C@@H](O)[C@@H]1O` (stereo partly shown) [GlcN, glucosamine], the “expression levels of OMP and Golf” value in experiment [1] (setting [3]) is listed as “promoted the maturation of ORNs”. Same read-out and setting: in the case of `CC(=O)N[C@H]1C(O)O[C@H](CO)[C@@H](O)[C@@H]1O` (stereo partly shown) [GlcNAc, N-acetylglucosamine] it was “promoted the maturation of ORNs”. Turning to `CC(=O)N[C@H]1C(O)O[C@H](CO)[C@H](O)[C@@H]1O` (stereo partly shown) [GalNAc, N-acetylgalactosamine], in experiment [1] (setting [3]), the “expression levels of OMP and Golf” value is “promoted the maturation of ORNs”. Further, in experiment [2], the “expression levels of OMP” value is given as “induced positive effects on human ONCs”. For `CC(=O)N[C@@H]1C(O)O[C@H](CO)[C@@H](O)[C@@H]1O` (stereo partly drawn) [ManNAc, N-acetyl-D-mannosamine], in that order: “promoted the maturation of ORNs” and “induced positive effects on human ONCs”.
